Test results reported in US10125104B2, “Carotenoid derivative, pharmaceutically acceptable salt thereof, or pharmaceutically acceptable ester or amide thereof” (Asta Pharmaceuticals Co., Ltd., priority 2014, dated 2018).

What was measured:
[1] = system: IL-1β mRNA in RAW264.7 cells; assay: Test for anti-inflammation in a cell: IL-1β mRNA by quantitative RT-PCR after LPS; assay type: cell-based, mouse; conditions: for suppression of IL-1β gene expression (in words): RAW264.7 cells, LPS; for IL-1β Gene expressivity: relative to the control, LPS 1 ng/mL, 2 hours
Experimental: Test for Anti-Inflammation in a Cell
These cells were cultured for 48 hours in 5% CO2 at 37° C. After the medium replacement, an aqueous solution of the sample was added to the medium and the cell was cultured for 24 hours. The medium was then replaced, LPS (1 ng/mL) was added thereto and the cell was cultured for 2 hours.
Then, the medium was removed and the RAW264.7 cells were washed with physiological phosphate buffer solution (PBS). This operation was performed 3 times. Then, Total RNA was extracted using RNeasy Mini Kit (QIAGEN Inc.), and the production amount of IL-1β mRNA which is an inflammatory cytokine, was measured by a quantitative RT-PCR method using PRISM 7000 (Applied Biosystem).

TNF-α = assay: Test for anti-inflammation in rats (LPS intraperitoneally): blood plasma TNF-α by ELISA; assay type: in vivo, Wistar rats; conditions: for TNF-α concentration in blood plasma: 4 mg/kg LPS i.p., then sample i.p., blood after 9 hours
Experimental: (§1) Test for Anti-Inflammation in Rats
(§2) Six week-old Wistar rats (purchased from Sankyo Labo Service Corporation, 200-250 g body weight) were acclimatized for 1 week with free access to food under a 12/12-hr light-dark cycle. An aqueous solution of 4 mg/kg LPS (lipopolysaccharide, derived from Escherichia coli and manufactured by Wako Pure Chemical Industries, Ltd.) was injected intraperitoneally and then an aqueous solution of the sample was injected intraperitoneally. After 9 hours, the whole blood was collected from the ventral aorta and centrifuged for 10 minutes at 10,000 rpm, and the blood plasma was collected. The blood plasma TNF-α concentration was measured using a kit for measuring TNF-α (Rat TNF-alpha Quantikine ELISA Kit RTA00, manufactured by R&D Systems Inc.) and the blood plasma IL-1β concentration was measured using a kit for measuring IL-1β (Rat IL-1b/IL1F2 Quantikine ELISA Kit, manufactured by R&D Systems Inc.). The 3 to 4 animals per group were used. The blood plasma TNF-α concentration is shown in Table 46 and FIG. 3 and the blood plasma IL-1β concentration is shown in Table 46 and FIG. 4.

IL-1β = assay: Test for anti-inflammation in rats (LPS intraperitoneally): blood plasma IL-1β by ELISA; assay type: in vivo, Wistar rats; conditions: for IL-1β concentration in blood plasma: 4 mg/kg LPS i.p., then sample i.p., blood after 9 hours
Experimental: as §1, §2

[2] = Test for confirmation of water solubility (distribution to water/methylene chloride); assay type: physicochemical
Experimental: Test for Confirmation of Water Solubility (Distribution to Water/Methylene Chloride)
To each of the samples (1 mg) in Table 43, water (5 mL) and methylene chloride (5 mL) were added and the mixture was shaken, which was called the group of Solution A. A 28% sodium methoxide/methanol solution (463 μL (2.33 mmol)) was dissolved in water (10 mL), and the aqueous solution (1 mL) was collected and dissolved in water (100 mL), which was called Solution B. To each of the group of Solution A, Solution B (1 mL) was added and shaken. The solution was left at room temperature, each of the aqueous layer and of the organic layer were measured by HPLC and the ratio of the compound in the aqueous layer was shown in Table 4.
HPLC conditions were as follows:
chromatograph (HITACHI LaChrom Elite D-2000), column (SHISEIDO CAPCELL PAK C18 (3 μm particle diameter, 4.6 mm×150 mm)), detection temperature (40° C.), detection wavelength (474 nm), flow rate (1.0 mL/min) and mobile phase set up (% A=0.025% TFA/water, % B=0.025% TFA/acetonitrile); 70% A/30% B (at the start), 50% B gradient until 2.5 minutes, 98% B gradient until 4.2 minutes and the ratio (98% B) maintained until 15 minutes. The ratio in the aqueous layer was calculated from the following equation. […]

[3] = digestive absorption; cited from earlier work
[4] = Test for oral absorption: blood plasma concentration of astaxanthin after oral gavage; assay type: in vivo, Wistar rat; conditions: compared to astaxanthin (free form) and the extract from Haematococcus algae
Experimental: Test for Oral Absorption in […]
Each of the compound in Example 8, astaxanthin (free form) and an extract from Haematococcus algae (AstaReal L10, manufactured by Fuji Chemical Industries Co., Ltd., oil containing 10% astaxanthin extracted from Haematococcus algae) was diluted with 33% dimethyl sulfoxide, 60% polyethylene glycol and 0.03% aqueous carboxymethyl cellulose solution and prepared to have a concentration of 5 mg/ml as a conversion to astaxanthin free form. The prepared sample was administered to a Wistar rat fasted one night (male, 9 to 13 weeks old, 250 to 300 g of body weight, 2 or 4 animals per group) by oral gavage in an amount of astaxanthin (50 mg) per 1 kg of body weight. Then, the blood was collected at the time points of 3 hours, 6 hours and 24 hours and the blood plasma was isolated. To the obtained blood plasma (0.1 ml), acetone in an amount of 6 folds and hexane in an amount of 50 folds were added, and the solution was stirred well and centrifuged to obtain a hexane layer. The hexane layer was dried under reduced pressure and dissolved in acetone (0.1 ml). The obtained acetone solution (0.05 mL) was analyzed by high performance liquid chromatography (HPLC) under the following conditions and the blood concentration was measured. […]

[5] = compared to astaxanthin and disodium disuccinate astaxanthin

For `CC(C=CC=C(C)C=CC1=C(C)C(=O)C(OC(=O)CNC(=O)NCCCC(=O)O)CC1(C)C)=CC=CC=C(C)C=CC=C(C)C=CC1=C(C)C(=O)C(OC(=O)CNC(=O)NCCCC(=O)O)CC1(C)C.NCCCC[C@H](N)C(=O)O.NCCCC[C@H](N)C(=O)O` (stereo not drawn) [Example (23), 4-(3-{4-[18-(4-[3-(3-carboxypropyl)ureidoacetoxy]-2,6,6-trimethyl-3-oxocyclohexa-1-enyl)-3,7,12,16-tetramethyloctadeca-1,3,5,7,9,11,13,15,17-nonaenyl]-3,5,5-trimethyl-2-oxocyclohexa-3-enyloxycarbonylmethyl}-ureido)butyric acid dilysine salt], the “suppression of IL-1β gene expression (in words)” value [1] was “suppressed IL-1β gene expression superiorly to astaxanthin”, the “IL-1β Gene expressivity” value ([1]; sample concentration 5 μM) was 0.88 and the “TNF-α concentration in blood plasma” value (TNF-α) was 81.8 ± 83.5 pg/mL. The “suppression of generation of TNF-α (in words)” value (TNF-α; [5]) was “suppressed generation of TNF-α and of IL-1β more effectively”, the “IL-1β concentration in blood plasma” value (IL-1β) was 146.3 ± 98.0 pg/mL and the “suppression of generation of IL-1β (in words)” value (IL-1β; [5]) was “suppressed generation of TNF-α and of IL-1β more effectively”.

For `CC(C=CC=C(C)C=CC1=C(C)C(=O)C(O)CC1(C)C)=CC=CC=C(C)C=CC=C(C)C=CC1=C(C)C(=O)C(O)CC1(C)C` (stereo not drawn) [Astaxanthin, 6-hydroxy-3-(18-[4-hydroxy-2,6,6-trimethyl-3-oxo-1-cyclohexenyl]-3,7,12,16-tetramethyloctadeca-1,3,5,7,9,11,13,15,17-nonaenyl)-2,4,4-trimethyl-2-cyclohexen-1-one, reference compound], the “water solubility (in words)” value [2] was “extremely low solubility in water”, the “IL-1β Gene expressivity” value ([1]; sample concentration 5 μM) was 1.00 and the “IL-1β Gene expressivity” value ([1]; sample concentration 25 μM) was 0.96. The “IL-1β Gene expressivity” value ([1]; sample concentration 50 μM) was 0.77, the “TNF-α concentration in blood plasma” value (TNF-α) was 112.0 ± 35.6 pg/mL and the “IL-1β concentration in blood plasma” value (IL-1β) was 203.9 ± 165.3 pg/mL. The biological availability [3] was “around several percent”.

For `CC(C=CC=C(C)C=CC1=C(C)C(=O)C(OC(=O)CNC(=O)NCCCC(=O)[O-])CC1(C)C)=CC=CC=C(C)C=CC=C(C)C=CC1=C(C)C(=O)C(OC(=O)CNC(=O)NCCCC(=O)[O-])CC1(C)C.[Na+].[Na+]` (stereo not drawn) [Example (22), 4-(3-{4-[18-(4-[3-(3-carboxypropyl)ureidoacetoxy]-2,6,6-trimethyl-3-oxocyclohexa-1-enyl)-3,7,12,16-tetramethyloctadeca-1,3,5,7,9,11,13,15,17-nonaenyl]-3,5,5-trimethyl-2-oxocyclohexa-3-enyloxycarbonylmethyl}-ureido)butyric acid disodium salt], the “suppression of IL-1β gene expression (in words)” value [1] was “suppressed IL-1β gene expression superiorly to astaxanthin”, the “IL-1β Gene expressivity” value ([1]; sample concentration 5 μM) was 0.92 and the “IL-1β Gene expressivity” value ([1]; sample concentration 25 μM) was 0.66. The “IL-1β Gene expressivity” value ([1]; sample concentration 50 μM) was 0.31.

In the case of `CC1=C(/C=C/C(C)=C/C=C/C(C)=C/C=C/C=C(C)/C=C/C=C(C)/C=C/C2=C(C)C(=O)C(OC(=O)CCC(=O)O)CC2(C)C)C(C)(C)CC(OC(=O)CCC(=O)O)C1=O` (stereo not drawn) [Disodium Disuccinate Astaxanthin (DDA), Disodium Disuccinate Astaxanthin, reference compound], the “TNF-α concentration in blood plasma” value (TNF-α) was 99.6 ± 99.9 pg/mL and the “IL-1β concentration in blood plasma” value (IL-1β) was 311.7 ± 269.1 pg/mL.

In the case of `CC(C=CC=C(C)C=CC1=C(C)C(=O)C(OC(=O)CNC(=O)NCCCC(=O)O)CC1(C)C)=CC=CC=C(C)C=CC=C(C)C=CC1=C(C)C(=O)C(OC(=O)CNC(=O)NCCCC(=O)O)CC1(C)C` (stereo not drawn) [Example (8), 4-(3-{4-[18-(4-[3-(3-carboxylpropyl)ureidoacetoxy]-2,6,6-trimethyl-3-oxocyclohexa-1-enyl)-3,7,12,16-tetramethyloctadeca-1,3,5,7,9,11,13,15,17-nonaenyl]-3,5,5-trimethyl-2-oxocyclohexa-3-enyloxycarbonylmethyl}-ureido)butyric acid], the “oral absorbability (in words)” value [4] was “higher oral absorbability”.

With `CC(C=CC=C(C)C=CC1=C(C)C(=O)C(OC(=O)CCC(=O)O)CC1(C)C)=CC=CC=C(C)C=CC=C(C)C=CC1=C(C)C(=O)C(OC(=O)CCC(=O)O)CC1(C)C` (stereo not drawn) [Astaxanthin disuccinate ester, astaxanthin disuccinic acid ester] the “Ratio of aqueous layer” value ([2]; 1 mg sample in water 5 mL / methylene chloride 5 mL plus dilute sodium methoxide solution, HPLC peak areas, 474 nm) was 43.8%.
